In patent US5885992A, “Triterpene derivative and medicinal composition” (Nippon Shinyaku Company, Limited, priority 1994, dated 1999):

What was measured:
MRL/lpr mice = experiment: Effect on nephritis in MRL/lpr mice: incidence of proteinuria; assay type: in vivo, mouse; details: 10 weeks; for Number of animals with proteinuria, grade 1+ (30-100 mg/dl) / Number of animals with proteinuria, grade - (negative): control 0 of 12; for Number of animals with proteinuria, grade 3+ (300-1000 mg/dl): control 1 of 12; for Number of animals with proteinuria, grade 2+ (100-300 mg/dl): control 4 of 12; for Number of animals with proteinuria, grade 4+ (>1000 mg/dl): control 7 of 12, *P < 0.05
Description: (§1) Effect on nephritis in MRL/lpr mice
(§2) The MRL/lpr mouse is a model of lupus nephritis in mice which spontaneously and secondarily develop proliferative glomerulonephritis due to autoimmune disease. Using this nephritis model, a 10-week long-term oral administration experiment with the test drugs was performed.
(§3) MRL/lpr mice purchased from Jackson Laboratory and maintained in Nippon Shinyaku Co., Ltd. were used.
(§4) A suspension of each test drug was administered orally once a day on 6 days per week from the age 8 weeks for 10 weeks. During the administration period, the semi-quantitative test for urinary protein (regent strips) was performed. At the end of the administration period, the animals were sacrificed and the kidneys were removed. The kidney was fixed in 10% phosphate-buffered formalin and, in the routine manner, paraffin sections were prepared and stained with periodic acid-Schiff stain for microscopy. For histopathological evaluation, the glomerular lesions in each tissue preparation were observed by light microscopy and graded according to the method of Berden (J. Immunology, 130, 1699-1705, 1983) and the incidence (%) of each grade was calculated for each group. Statistical analysis was performed by Mann Whitney's rank-sum test.

mesangial cells [1] = experiment: Effect on anti-Thy-1 antibody nephritis in rats (number of mesangial cells per glomerulus); assay type: in vivo, rat; details: 100 mg/kg p.o. once a day for 7 days, n=5, mean ± standard error, **P < 0.01, controls (distilled water): 59.5 ± 3.5 (No. 1), 61.8 ± 2.2 (No. 2), 54.8 ± 2.1 (No. 9), intact animal 43
Description: Anti-Thy-1 antibody-induced nephritis is a model of glomerulonephritis constructed by utilizing the reaction between the Thy-1 antigen occurring as a membrane protein of mesangial cells and the antibody to the antigen. In this model, injuries to mesangial cells and lesions associated with mesangial cell proliferation are found.
Preparation of anti-Thy-1 antibody
Preparation of the antibody was carried out in accordance with the method of Ishizaki et al. referred to above. Thus, an adjuvant suspension of rat thymocytes was prepared and subcutaneously administered to rabbits for immunization. After two booster doses, the blood was collected and the serum separated was subjected to inactivation and absorption to provide an antiserum (anti-Thy-1 antibody).
A predetermined amount of the antiserum was injected intravenously from the tail vein of rats to induce nephritis. Starting the following day after injection, a suspension of the test drug was administered orally once a day for 7 days. On day 8 following the beginning of administration, the animals were sacrificed and the kidneys were removed. The kidney was fixed in 10% phosphate-buffered formalin and, in the routine manner, paraffin sections were prepared and stained with periodic acid-schiff stain for microscopy. For histopathological evaluation, the number of cells in the glomeruli (mainly mesangial cells) in each tissue preparation was counted under a light microscope. Statistical analysis was performed by unpaired t-test.

glomeruli = experiment: Effect on nephritis in MRL/lpr mice: histopathological findings of glomeruli; assay type: in vivo, mouse; details: 10 weeks; for Incidence of glomerular lesions, grade - (no remarkable change): control 1; for Incidence of glomerular lesions, grade 4+ (extremely marked change): control 8, **P < 0.01; for Incidence of glomerular lesions, grade 1+ (slight change): control 14; for Incidence of glomerular lesions, grade 3+ (marked change): control 25; for Incidence of glomerular lesions, grade 2+ (moderate change): control 52
Description: as §1, §2, §3, §4

mice = experiment: Acute toxicity; assay type: in vivo, mouse; details: 2 g/kg p.o.; for Acute toxicity: abnormal findings: general condition up to 1 week; for Acute toxicity: death: observed up to 1 week
Text: Compound No. 1 and the compound No. 9 were examined.

mesangial cells [2] = experiment: Inhibitory effect on mesangial cell proliferation in vitro; assay type: cell-based; details: Rattus norvegicus, 10 μg/ml, 72 hours, LPS-stimulated macrophage culture supernatant, crystal violet, relative to control, read-out: Inhibition rate of mesangial cell proliferation in vitro
Description: Inhibitory effect on mesangial cell proliferation in vitro
Glomeruli were isolated from the rat kidney by the sieving method. Mesangial cells were obtained from isolated these glomeruli which were maintained in culture. The mesangial cells were seeded on the plate and, after 24 hours, an LPS (lipopolysaccharide)-stimulated macrophage culture supernatant (a solution containing growth factor) and the test drug were added and the plate was incubated for 72 hours. The mesangial cells were fixed and stained with crystal violet and the absorbance was measured. The inhibitory activity of the mesangial cell proliferation of the test compound was evaluated in relative inhibition rate (%) in comparison with the absorbance of the control obtained under the same culture conditions.

In the case of `CC1(C)CC[C@]2(C(=O)O)CC[C@]3(C)C(=CC[C@@H]4[C@@]5(C)CC[C@H](O)[C@@](C)(CO)[C@@H]5CC[C@]43C)[C@@H]2C1` [Compound No. 1, 3β,23-dihydroxyolean-12-en-28-oic acid], the “Number of animals with proteinuria, grade 1+ (30-100 mg/dl)” value (MRL/lpr mice; 10 mg/kg p.o., n=13) is reported as 7, the “Number of animals with proteinuria, grade - (negative)” value (MRL/lpr mice; 10 mg/kg p.o., n=13) is reported as 0 and the “Number of animals with proteinuria, grade 3+ (300-1000 mg/dl)” value (MRL/lpr mice; 10 mg/kg p.o., n=13) is reported as 1. For the same molecule, the “Number of animals with proteinuria, grade 2+ (100-300 mg/dl)” value (MRL/lpr mice; 10 mg/kg p.o., n=13) was 2, the “Number of animals with proteinuria, grade 4+ (>1000 mg/dl)” value (MRL/lpr mice; 10 mg/kg p.o., n=13) was 3 and the “Number of animals with proteinuria, grade 1+ (30-100 mg/dl)” value (MRL/lpr mice; 30 mg/kg p.o., n=14) was 4. For the same molecule, the “Number of animals with proteinuria, grade - (negative)” value (MRL/lpr mice; 30 mg/kg p.o., n=14) was 3, the “Number of animals with proteinuria, grade 3+ (300-1000 mg/dl)” value (MRL/lpr mice; 30 mg/kg p.o., n=14) was 5 and the “Number of animals with proteinuria, grade 2+ (100-300 mg/dl)” value (MRL/lpr mice; 30 mg/kg p.o., n=14) was 0. For the same molecule, the “Number of animals with proteinuria, grade 4+ (>1000 mg/dl)” value (MRL/lpr mice; 30 mg/kg p.o., n=14) was 2, the “Number of mesangial cells per glomerulus” value (mesangial cells [1]) was 48.2 ± 1.6 and the “Incidence of glomerular lesions, grade - (no remarkable change)” value (glomeruli; 10 mg/kg p.o.) was 3%. For the same molecule, the “Incidence of glomerular lesions, grade 4+ (extremely marked change)” value (glomeruli; 10 mg/kg p.o.) was 2%, the “Incidence of glomerular lesions, grade 1+ (slight change)” value (glomeruli; 10 mg/kg p.o.) was 29% and the “Incidence of glomerular lesions, grade 3+ (marked change)” value (glomeruli; 10 mg/kg p.o.) was 9%. For the same molecule, the “Incidence of glomerular lesions, grade 2+ (moderate change)” value (glomeruli; 10 mg/kg p.o.) was 57%, the “Incidence of glomerular lesions, grade - (no remarkable change)” value (glomeruli; 30 mg/kg p.o.) was 3% and the “Incidence of glomerular lesions, grade 4+ (extremely marked change)” value (glomeruli; 30 mg/kg p.o.) was 0%. For the same molecule, the “Incidence of glomerular lesions, grade 1+ (slight change)” value (glomeruli; 30 mg/kg p.o.) was 25%, the “Incidence of glomerular lesions, grade 3+ (marked change)” value (glomeruli; 30 mg/kg p.o.) was 9% and the “Incidence of glomerular lesions, grade 2+ (moderate change)” value (glomeruli; 30 mg/kg p.o.) was 63%. For the same molecule, the “Acute toxicity: abnormal findings” value (mice) was “nor was there any abnormal findings” and the “Acute toxicity: death” value (mice) was “no death was encountered”.

For `CC(=O)OCCOC(=O)[C@]12CCC(C)(C)C[C@H]1C1=CC[C@@H]3[C@@]4(C)CC[C@H](O)[C@@](C)(CO)[C@@H]4CC[C@@]3(C)[C@]1(C)CC2` [Compound No. 2, 2-Acetoxyethyl 3β,23(4α)-dihydroxyolean-12-en-28-oate], the inhibition at 10 µg/mL (mesangial cells [2]) was 57.9% and the “Number of mesangial cells per glomerulus” value (mesangial cells [1]) was 50.9 ± 1.3.

`COCCNC(=O)[C@]12CCC(C)(C)C[C@H]1C1=CC[C@@H]3[C@@]4(C)CC[C@H](O)[C@@](C)(CO)[C@@H]4CC[C@@]3(C)[C@]1(C)CC2` [Compound No. 9, N-(2-methoxyethyl)-3β,23(4α)-dihydroxyolean-12-en-28-amide] was tested, and the inhibition at 10 µg/mL (mesangial cells [2]) was 43.3%, the “Number of mesangial cells per glomerulus” value (mesangial cells [1]) was 45.8 ± 0.7 and the “Acute toxicity: abnormal findings” value (mice) was “nor was there any abnormal findings”. For the same molecule, the “Acute toxicity: death” value (mice) was “no death was encountered”.
